The text below walks through data of patent publication US9670139B2, “Telomerase activating compounds and methods of use thereof” (BEN-GURION UNIVERSITY OF THE NEGEV RESEARCH AND DEVELOPMENT …, priority 2007, dated 2017).

Numbered stars: 1 amine (or outer) side, 2 acyl side, 3 side chain; on linkers, the order of the positions; unused ones are H or OH. Bridge positions count the residues as written; N and C are the ends. Square brackets hold non-standard residues; d marks the D form. Peptide text beside a SMILES is read from it. I, II: the chains in the order shown. Actinocin(9to1) = Cc1c2oc3c(C)ccc(C(=O)[*:1])c3nc-2c(C(=O)[*:2])c(N)c1=O; NMeV = CN[C@H](C(=O)O)C(C)C; Sar = CNCC(=O)O

Series [1] has as its system C. elegans. Briefly: Lifespan extension of nematodes (C. elegans). It is filed as in vivo. The following applies: for Lifes pan ext. %: nematodes grown with compound at 50 micromolar; for Lifes pan ext. % / Lifespan %: mean lifespan versus control; for Lifespan % / Lifespan extension (%): 50 micromolar; for Lifespan extension (%): Table 2, versus untreated controls. The method, then:
Nematodes (C. elegans) were administered tri-phenyl telomerase-activating compounds presented in the following tables, and telomerase activity and/or expression was measured in terms of nematode lifespan extension. Nematodes were grown with the activators at 50 micromolar concentration, and the mean, maximum and half-life for Compound 68 and Compound 77, two representative molecules, was measured versus that of the control (FIG. 8). Values represent mean lifespan.
Survival of the C. elegans, a nematode that normally survives for 12-14 days, represents an acceptable model for studying life extension. Nematodes were administered tri-phenyl telomerase-activating compounds and their effect on the nematode lifespan extension was determined. Nematodes were grown with the activators at a concentration of 50 micromolar, and mean, maximum and half-life were measured in comparison with untreated controls. Lifespan increased by 13-43% (Table 2), and the median lifespan increased approximately 2-fold (from 12 days to 22 days, as shown in FIG. 8).

Series [2] concerns telomerase mRNA. The series can be described thus: Northern blot of telomerase mRNA with hTERT probe. In kind it is cell-based, human. On the procedure:
Experiments were also performed to determine the effect of compounds of the present invention on the telomerase mRNA level (including the full and spliced variant telo-mRNAs). Cells were treated with a single dose of […] Compound 68 for various intervals (1-24 h). Total RNA extracts were prepared, and equal RNA concentrations were analyzed by northern blotting with a specific hTERT probe. […] The increased expression of telomerase was specific since no effect on GAPDH mRNA was observed (lower panel).

Series [3] deals with telomerase (Homo sapiens, UniProt O14746). The series can be described thus: Telomerase activity in RPE cells (quantitative telomerase detection kit, real time PCR). In kind it is cell-based. Also noted: endogenous in cells; host or cells: human retinal pigmented epithelial (RPE) cells. The following applies: FIG. 7B. The source says:
FIG. 7: A. The effect of compounds of the present invention on human retinal pigmented epithelial cells under oxidative stress. B. The effect of compounds on telomerase activity in RPE cells (measured by a quantitative telomerase detection kit-real time PCR).
Chronic exposure of human retinal pigmented epithelial (RPE) cells to oxidative stress predisposes them to the development of age-related macular degeneration (AMD). Human RPE cells were exposed to oxidative stress by treatment with H2O2 (1 mM) for 24 hours, and H2O2 (0.5 mM) for another 24 hours. The cells were then treated daily for two days with the indicated compounds in the absence of H2O2. Increased cell growth was observed as a consequence of treatment with the compounds (FIG. 7A). Telomerase activity was enhanced in RPE cells treated with compounds 68 and 79 by 30- and 50-fold, respectively (FIG. 7B).
In general terms: Real-time PCR tracks product formation cycle by cycle.

For series [4], the system named is telomerase protein. The series can be described thus: Western blot of telomerase protein level in treated glioblastoma cells. In kind it is cell-based, human. The note with it: 1 μM single dose. The method, then: The effect of compounds of the present invention on the level of telomerase protein and of long-term treatment of a single dose of Compound 68 on telomerase was tested by exposing cells for various intervals (3-24 h) to 1 μM of the compound and detecting telomerase protein level by western blot analysis with anti-telomerase antibody. […] A time-dependent increase in telomerase was observed, with activation peaking at […] of treatment, and then gradually decreasing.
Background: A western blot detects proteins with antibodies after separation by electrophoresis.

The subject of series [5] is embryos. Briefly: Prevention of camptothecin damage to embryo development in rats. It is filed as in vivo, rat. The following applies: embryos at days 14-15. The method, then:
The ability of compounds of the present invention to prevent the damaging effects of drugs on embryonic development was examined in rats. Female rats were treated with camptothecin (CPT) (5 mg/kg), an anti-cancer drug, and then injected with Compound 68 (6 mg/kg) or vehicle (0.1%). Embryos were removed at days 14-15 of pregnancy and examined for damage.

For series [6], the system named is telomerase. The series can be described thus: Activation of telomerase expression in rat endometrial cells after subcutaneous injection. In kind it is in vivo. The note with it: 6 mg/kg subcutaneously, 24 h. The method, then:
Female rats in diestrus (the stage at which the epithelial layer in the rat endometrium undergoes degradation) were injected subcutaneously with 6 mg/kg of Compound 68, or with a vehicle. The rats were sacrificed 24 h later and endometrial sections were prepared from the uterine horns of treated and untreated rats and analyzed by histological procedures and by immunohistochemical staining Endometrial slices were stained by hematoxylin-eosin. […] In addition, morphologically, the endometrial tissue resembled the structure of the proliferating stages (proestrus and estrus) (FIG. 9A,B). Activation of telomerase expression in the endometrial cells of treated rats was examined by immunohistochemistry with anti-telomerase antibody (FIG. 9C-F). […] In addition, telomerase activity was measured in nuclear extracts derived from the endometrium of the various treatment groups. […] In some embodiments of the invention, the data support a role for the treatment of endometriosis with the compounds of this invention.

Series [7] is described as follows: Solubility noted at synthesis. It is filed as physicochemical.

Sequence of telomerase (Homo sapiens, UniProt O14746) (O14746 whole entry): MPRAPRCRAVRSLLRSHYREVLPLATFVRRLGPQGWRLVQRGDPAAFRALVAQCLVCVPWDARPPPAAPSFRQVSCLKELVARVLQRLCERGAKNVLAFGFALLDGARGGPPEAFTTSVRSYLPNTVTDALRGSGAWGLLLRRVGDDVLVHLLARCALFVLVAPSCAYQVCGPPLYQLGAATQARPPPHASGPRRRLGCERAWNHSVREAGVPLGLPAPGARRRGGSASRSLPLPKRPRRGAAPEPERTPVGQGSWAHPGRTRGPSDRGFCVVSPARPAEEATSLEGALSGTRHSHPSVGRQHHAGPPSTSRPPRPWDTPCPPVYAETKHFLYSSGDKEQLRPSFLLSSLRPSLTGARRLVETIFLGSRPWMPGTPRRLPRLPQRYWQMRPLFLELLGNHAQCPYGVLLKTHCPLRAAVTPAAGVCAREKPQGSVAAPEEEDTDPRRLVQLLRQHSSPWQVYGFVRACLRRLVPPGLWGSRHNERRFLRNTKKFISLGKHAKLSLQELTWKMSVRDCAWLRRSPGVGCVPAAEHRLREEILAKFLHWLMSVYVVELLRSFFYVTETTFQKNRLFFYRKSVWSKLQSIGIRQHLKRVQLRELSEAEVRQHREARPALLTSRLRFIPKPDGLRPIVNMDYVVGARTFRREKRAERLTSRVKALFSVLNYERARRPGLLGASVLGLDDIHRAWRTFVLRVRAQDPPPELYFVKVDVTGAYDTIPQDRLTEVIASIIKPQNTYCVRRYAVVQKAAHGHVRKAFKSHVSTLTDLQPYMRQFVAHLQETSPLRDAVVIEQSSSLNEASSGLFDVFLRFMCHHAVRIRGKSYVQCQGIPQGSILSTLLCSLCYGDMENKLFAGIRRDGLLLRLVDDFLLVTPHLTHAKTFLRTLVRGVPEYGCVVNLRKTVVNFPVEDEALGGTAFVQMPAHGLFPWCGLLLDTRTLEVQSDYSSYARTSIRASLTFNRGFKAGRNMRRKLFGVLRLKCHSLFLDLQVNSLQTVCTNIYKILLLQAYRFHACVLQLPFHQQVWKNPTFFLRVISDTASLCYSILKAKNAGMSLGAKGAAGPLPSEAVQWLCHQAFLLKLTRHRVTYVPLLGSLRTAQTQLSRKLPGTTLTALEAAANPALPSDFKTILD

Consider `CC(c1ccccc1)(c1ccccc1)c1ccccc1` [Compound 49], for which, in series [1], the “Lifes pan ext. %” value is 16%. Regarding `CC(c1ccc(O)cc1)(c1ccc(O)cc1)c1ccc(O)cc1` [Compound 1], in series [1], the “Lifes pan ext. %” value was found to be 30%.

For `CCOC(=O)COc1ccc(C(C)(c2ccc(OCC(=O)OCC)cc2)c2ccc(OCC(=O)OCC)cc2)cc1` [Compound 42], in series [1], the “Lifes pan ext. %” value is −7%. On to `CC(c1ccc(O)c([N+](=O)[O-])c1)(c1ccc(O)c([N+](=O)[O-])c1)c1ccc(O)c([N+](=O)[O-])c1` [Compound 71], for which the Lifespan % in series [1] (table of scaffold drawing 36) worked out at 8%.

On to `CC(c1ccc(O)c(Br)c1)(c1ccc(O)c(Br)c1)c1ccc(O)c(Br)c1` [Compound 69], for which the Lifespan % in series [1] (table of scaffold drawing 36) is reported as −5%. Regarding `CC(c1cc(Br)c(O)c(Br)c1)(c1cc(Br)c(O)c(Br)c1)c1cc(Br)c(O)c(Br)c1` [Compound 68, 1,1,1-tris(4-hydroxy-3,5-dibromo-phenyl)-ethane], the “level of telomerase full-length and splice variant mRNA, fold of control” value in series [2] (single dose of 1 mM, 1-24 h) is reported as “up to 4.5 fold”. The “Lifespan extension (%)” value in series [1] is recorded as 13%. Moreover, the Lifespan % in series [1] (table of scaffold drawing 36) worked out at 13%. Besides, the “enhancement of telomerase activity in RPE cells” value in series [3] came out at 30 fold. Moreover, the “time of peak telomerase activation” value in series [4] lay within 1 to 3 h. In series [4] (3-24 h, western blot), the telomerase protein level result is “increased telomerase protein level”. Besides, in series [4] (24 h), the “level of telomerase compared to vehicle-treated cells after 24 h” value was “only slightly higher”. Moreover, in series [5] (CPT 5 mg/kg then compound 6 mg/kg), the “embryo development after CPT plus compound” value is on record as “developed normally”. The “staining of telomerase in the endometrial tissue (immunohistochemistry)” value in series [6] is “significant increase”. Also, the “degradation of the endometrial epithelial layer” value in series [6] (female rats in diestrus) was “prevented the degradation of the endometrial epithelial layer”. `CC(c1ccc(O)cc1)(c1ccc(O)cc1)c1ccc(-c2cccnc2)cc1` [Compound 54]: the “Lifes pan ext. %” value in series [1] came out at 15%.

Regarding `COc1ccc(C(c2ccc(-c3c[nH]c4ccccc34)cc2)c2ccc(-c3c[nH]c4ccccc34)cc2)cc1` [Compound 50], in series [1], the “Lifes pan ext. %” value is listed as 4%. With `c1ccc(P(c2ccccc2)c2ccccc2)cc1` [Compound 64], in series [1] (table of scaffold drawing 35), the Lifespan % was 19%. Regarding `COc1ccc(C(C)(c2ccc(OC)cc2)c2ccc(OC)cc2)cc1` [Compound 5], the “Lifes pan ext. %” value in series [1] is given as 12%.

On to `Cc1ccc(C(C)(c2ccc(C)cc2)c2ccc(C)cc2)cc1` [Compound 22], for which, in series [1], the “Lifes pan ext. %” value is recorded as 21%. With `CC[C@@]1(O)C(=O)OCc2c1cc1n(c2=O)Cc2cc3ccccc3nc2-1` [CPT, camptothecin, reference compound], the “embryo development after CPT only” value in series [5] (CPT 5 mg/kg plus vehicle) is “evidence of abnormal development”.

For `O=P(c1ccc(O)cc1)(c1ccc(O)cc1)c1ccc(O)cc1` [Compound 61], the “Lifespan extension (%)” value in series [1] was 30%. In series [1] (table of scaffold drawing 35), the Lifespan % stood at 30%. For `Cc1ccc(C(C)(c2ccccc2)c2ccccc2)cc1` [Compound 10], the “Lifes pan ext. %” value in series [1] is reported as −1%.

For `Oc1ccc(P(c2ccc(O)cc2)c2ccc(O)cc2)cc1` [Compound 60], the Lifespan % in series [1] (table of scaffold drawing 35) is on record as −2%. On the same count and under the same terms, in the case of `COc1ccc(P(=O)(c2ccc(OC)cc2)c2ccc(OC)cc2)cc1` [Compound 63] it was 0%. For `COc1ccc(C(C)(c2ccc(OC)c([N+](=O)[O-])c2)c2ccc(OC)c([N+](=O)[O-])c2)cc1[N+](=O)[O-]` [Compound 72], the Lifespan % in series [1] (table of scaffold drawing 36) amounted to 4%. Regarding `Cc1ccc(P(c2ccc(C)cc2)c2ccc(C)cc2)cc1` [Compound 65], the Lifespan % in series [1] (table of scaffold drawing 35) came to 42%. Consider `CC(c1ccccc1)(c1ccc(-c2cccc3ccccc23)cc1)c1ccc(C2c3ccccc3Oc3ccccc32)cc1` (centres unmarked) [Compound 33], for which the “Lifes pan ext. %” value in series [1] was −26%. As for `COc1c(I)cc(C(C)(c2cc(I)c(OC)c(I)c2)c2cc(I)c(OC)c(I)c2)cc1I` [Compound 73], the Lifespan % in series [1] (table of scaffold drawing 36) is −7%.

Regarding `COc1ccc(P(c2ccc(OC)cc2)c2ccc(OC)cc2)cc1` [Compound 62], in series [1], the “Lifespan extension (%)” value was determined as 29%. In addition, the Lifespan % in series [1] (table of scaffold drawing 35) is on record as 29%.

On to `Cc1c2oc3c(C)ccc(C(=O)N[C@@H]4C(=O)N[C@H](C(C)C)C(=O)N5CCC[C@H]5C(=O)N(C)CC(=O)N(C)[C@@H](C(C)C)C(=O)O[C@@H]4C)c3nc-2c(C(=O)N[C@@H]2C(=O)N[C@H](C(C)C)C(=O)N3CCC[C@H]3C(=O)N(C)CC(=O)N(C)[C@@H](C(C)C)C(=O)O[C@@H]2C)c(N)c1=O` [actinomycin D, reference compound] (I: T[dV]P[Sar][NMeV] / II: T[dV]P[Sar][NMeV]; ester I:1-I:C, II:1-II:C; linker I:N-II:N via Actinocin(9to1)), for which the “effect of addition during compound treatment on activation of telomerase expression” value in series [2] (added for 3 h during treatment with Compound 68) is given as “abolished the activation of telomerase expression”.

With `Brc1ccc(N(c2ccc(Br)cc2)c2ccc(Br)cc2)cc1` [Compound 66], the Lifespan % in series [1] (table of scaffold drawing 35) is 19%.

As to `CN1CCN(Cc2cc(C(C)(c3cc(CN4CCN(C)CC4)c(O)c(CN4CCN(C)CC4)c3)c3cc(CN4CCN(C)CC4)c(O)c(CN4CCN(C)CC4)c3)cc(CN3CCN(C)CC3)c2O)CC1` [Compound 78], in series [1], the “Lifespan extension (%)” value is 36%. The Lifespan % in series [1] (table of scaffold drawing 36) is 36%. Besides, the solubility in ethanol result in series [7] (ethanol) was “Soluble”. Besides, the solubility in water result in series [7] (water) is “very good solubility”.

On to `COc1c(Br)cc(C(C)(c2cc(Br)c(OC)c(Br)c2)c2cc(Br)c(OC)c(Br)c2)cc1Br` [Compound 70], for which the Lifespan % in series [1] (table of scaffold drawing 36) was 41%.

On to `COc1ccc(C(C)(c2ccc(-c3cccc4ccccc34)cc2)c2ccc(C3c4ccccc4-c4ccccc43)cc2)cc1` (centres unmarked) [Compound 31], for which the “Lifes pan ext. %” value in series [1] is 23%. For `CC(c1ccc(O)cc1)(c1ccc(O)cc1)c1ccc(-c2ccncc2)cc1` [Compound 53], the “Lifes pan ext. %” value in series [1] is listed as 13%.
